Assay results reported in patent US10550105B2 (Ribon Therapeutics Inc., priority 2018, dated 2020).

Columns and labels:
[1] = tested on: NCI-H1373 lung cancer cells; experiment: Inhibition of cancer cell growth in NCI-H1373 lung cancer cells (FIG. 2); format: cell-based, human
[2] = tested on: CAL 27; experiment: Growth inhibition of cancer cell lines, 72 hrs (CellTiter-Glo); format: cell-based; settings: Homo sapiens, upper aerodigestive tract, squamous cell carcinoma
Method: (§1) Example C: Inhibition of Cancer Cell Growth by Treatment with PARP7 Inhibitors
(§2) Table A-2 and Table A-3 (below) represents the concentration that causes 50% growth inhibition (GI50) in a panel of cancer cell lines with Compound 18B and Compound 561. Cells were plated into 384-well plates at a pre-specified density in fetal bovine serum-containing media. Cells were treated with compound or vehicle (DMSO) 24 hrs later, and a day zero plate was collected for analysis. Test compound plates were incubated continuously for 72 hrs (Table A-2) or 144 hours (Table A-3) cell growth was assessed using a luminescent cell viability assay (CellTiter-Glo, Promega). The GI50was determined by correcting for the cell count at time zero (time of treatment) and plotting data as percent growth relative to vehicle-treated cells.

[3] = tested on: CFPAC-1; experiment: as above; format: cell-based; settings: Homo sapiens, pancreas, ductal carcinoma
Method: as §1, §2

[4] = tested on: COLO-680N; experiment: as above; format: cell-based; settings: Homo sapiens, oesophagus, squamous cell carcinoma
Method: as §1, §2

[5] = tested on: COR-L105; experiment: as above; format: cell-based; settings: Homo sapiens, lung, adenocarcinoma
Method: as §1, §2

[6] = tested on: Caki-1; experiment: as above; format: cell-based; settings: Homo sapiens, kidney, clear cell renal cell carcinoma
Method: as §1, §2

[7] = tested on: EBC-1; experiment: as above; format: cell-based; settings: Homo sapiens, lung, squamous cell carcinoma
Method: as §1, §2

[8] = tested on: EFE-184; experiment: as above; format: cell-based; settings: Homo sapiens, endometrium, not specified
Method: as §1, §2

[9] = tested on: EN; experiment: as above; format: cell-based; settings: endometrium, not specified
Method: as §1, §2

[10] = tested on: FaDu; experiment: as above; format: cell-based; settings: Homo sapiens, upper aerodigestive tract, squamous cell carcinoma
Method: as §1, §2

[11] = tested on: GSU; experiment: as above; format: cell-based; settings: stomach, adenocarcinoma
Method: as §1, §2

[12] = tested on: HCC-2279; experiment: as above; format: cell-based; settings: lung, adenocarcinoma
Method: as §1, §2

[13] = tested on: HCC1187; experiment: as above; format: cell-based; settings: Homo sapiens, breast, ductal carcinoma
Method: as §1, §2

[14] = tested on: HCC1937; experiment: as above; format: cell-based; settings: Homo sapiens, breast, ductal carcinoma
Method: as §1, §2

[15] = tested on: HCC827; experiment: as above; format: cell-based; settings: Homo sapiens, lung, adenocarcinoma
Method: as §1, §2

[16] = tested on: HDQ-P1; experiment: as above; format: cell-based; settings: Homo sapiens, breast, ductal carcinoma
Method: as §1, §2

[17] = tested on: Hs 578T; experiment: as above; format: cell-based; settings: Homo sapiens, breast, ductal carcinoma
Method: as §1, §2

[18] = tested on: IA-LM; experiment: as above; format: cell-based; settings: lung, large cell carcinoma
Method: as §1, §2

[19] = tested on: JHOS-2; experiment: as above; format: cell-based; settings: ovary, adenocarcinoma
Method: as §1, §2

[20] = tested on: KMBC-2; experiment: as above; format: cell-based; settings: urinary tract, not specified
Method: as §1, §2

[21] = tested on: KMRC-3; experiment: as above; format: cell-based; settings: kidney, clear cell renal cell carcinoma
Method: as §1, §2

[22] = tested on: LS123; experiment: as above; format: cell-based; settings: Homo sapiens, LS-123, large intestine, adenocarcinoma
Method: as §1, §2

[23] = tested on: LUDLU-l; experiment: as above; format: cell-based; settings: lung, squamous cell carcinoma
Method: as §1, §2

[24] = tested on: LXF-289; experiment: as above; format: cell-based; settings: Homo sapiens, lung, adenocarcinoma
Method: as §1, §2

[25] = tested on: NCI-H1930; experiment: as above; format: cell-based; settings: Homo sapiens, lung, small cell carcinoma
Method: as §1, §2

[26] = tested on: NCI-H1963; experiment: as above; format: cell-based; settings: Homo sapiens, lung, small cell carcinoma
Method: as §1, §2

[27] = tested on: NCI-H2081; experiment: as above; format: cell-based; settings: Homo sapiens, lung, not specified
Method: as §1, §2

[28] = tested on: NCI-H2228; experiment: as above; format: cell-based; settings: Homo sapiens, lung, adenocarcinoma
Method: as §1, §2

[29] = tested on: NCI-H2347; experiment: as above; format: cell-based; settings: Homo sapiens, lung, adenocarcinoma
Method: as §1, §2

[30] = tested on: NCI-H441; experiment: as above; format: cell-based; settings: Homo sapiens, lung, adenocarcinoma
Method: as §1, §2

[31] = tested on: NCI-H596; experiment: as above; format: cell-based; settings: Homo sapiens, lung, mixed adenosquamous carcinoma
Method: as §1, §2

[32] = tested on: NCI-H647; experiment: as above; format: cell-based; settings: Homo sapiens, lung, mixed adenosquamous carcinoma
Method: as §1, §2

[33] = tested on: OVISE; experiment: as above; format: cell-based; settings: ovary, clear cell carcinoma
Method: as §1, §2

[34] = tested on: Panc 03.27; experiment: as above; format: cell-based; settings: Homo sapiens, PANC-03-27, pancreas, ductal carcinoma
Method: as §1, §2

[35] = tested on: SCC-25; experiment: as above; format: cell-based; settings: Homo sapiens, upper aerodigestive tract, squamous cell carcinoma
Method: as §1, §2

[36] = tested on: SK-BR-3; experiment: as above; format: cell-based; settings: Homo sapiens, breast, not specified
Method: as §1, §2

[37] = tested on: SNU-719; experiment: as above; format: cell-based; settings: stomach, not specified
Method: as §1, §2

[38] = tested on: SW 900; experiment: as above; format: cell-based; settings: Homo sapiens, SW900, lung, squamous cell carcinoma
Method: as §1, §2

[39] = tested on: SW620; experiment: as above; format: cell-based; settings: Homo sapiens, SW-620, large intestine, adenocarcinoma
Method: as §1, §2

[40] = tested on: T3M-10; experiment: as above; format: cell-based; settings: lung, large cell carcinoma
Method: as §1, §2

[41] = tested on: TE-8; experiment: as above; format: cell-based; settings: Homo sapiens, oesophagus, squamous cell carcinoma
Method: as §1, §2

[42] = tested on: TUHR10TKB; experiment: as above; format: cell-based; settings: kidney, not specified
Method: as §1, §2

[43] = tested on: TYK-nu; experiment: as above; format: cell-based; settings: ovary, undifferentiated carcinoma
Method: as §1, §2

[44] = tested on: YD-10B; experiment: as above; format: cell-based; settings: upper aerodigestive tract, squamous cell carcinoma
Method: as §1, §2

[45] = tested on: YH-13; experiment: as above; format: cell-based; settings: central nervous system, astrocytoma Grade IV
Method: as §1, §2

GI50 [2]: < 100 nM | GI50 [3]: 100 to 1000 nM | GI50 [4]: < 100 nM | GI50 [5]: 100 to 1000 nM | GI50 [6]: < 100 nM | GI50 [7]: < 100 nM | GI50 [8]: < 100 nM | GI50 [9]: 100 to 1000 nM | GI50 [10]: 100 to 1000 nM | GI50 [11]: < 100 nM | GI50 [12]: 100 to 1000 nM | GI50 [13]: 100 to 1000 nM | GI50 [14]: < 100 nM | GI50 [15]: 100 to 1000 nM | GI50 [16]: 100 to 1000 nM | GI50 [17]: 100 to 1000 nM | GI50 [18]: < 100 nM | GI50 [19]: < 100 nM | GI50 [20]: 100 to 1000 nM | GI50 [21]: 100 to 1000 nM | GI50 [22]: 100 to 1000 nM | GI50 [23]: 100 to 1000 nM | GI50 [24]: 100 to 1000 nM | GI50 [25]: < 100 nM | GI50 [26]: < 100 nM | GI50 [27]: 100 to 1000 nM | GI50 [28]: 100 to 1000 nM | GI50 [29]: < 100 nM | GI50 [30]: 100 to 1000 nM | GI50 [31]: < 100 nM | GI50 [32]: < 100 nM | GI50 [33]: 100 to 1000 nM | GI50 [34]: < 100 nM | GI50 [35]: < 100 nM | GI50 [36]: 100 to 1000 nM | GI50 [37]: 100 to 1000 nM | GI50 [38]: < 100 nM | GI50 [39]: 100 to 1000 nM | GI50 [40]: < 100 nM | GI50 [41]: < 100 nM | GI50 [42]: < 100 nM | GI50 [43]: < 100 nM | GI50 [44]: < 100 nM | GI50 [45]: < 100 nM
Structure (SMILES): N#Cc1ccc(N2CCN(C(=O)c3cccc(OC[C@@H]4c5ccccc5CN4c4cn[nH]c(=O)c4C(F)(F)F)c3)CC2)nc1 (single isomer, unassigned) [Example 18 Isomer B]
growth of NCI-H1373 lung cancer cells [1]: dose-dependent decrease in growth
